Measured values from ChEMBL document CHEMBL1201861, “Genomics of Drug Sensitity in Cancer screening data, Wellcome Trust Sanger Institute”.

Legend:
Test in all cases: cells
Format in all cases: functional, cell-based
Settings in all cases: Homo sapiens
COLO-800 = system: COLO-800;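 note: growth inhibition of COLO-800 cells, read out with a cell viability assay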
Description: SANGER: Inhibition of human COLO-800 cell growth in a cell viability assay.

COLO-824 = system: COLO-824
Description: SANGER: Inhibition of human COLO-824 cell growth in a cell viability assay.

DEL = system: DEL;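 note: growth inhibition of the human DEL cell line, read out with a cell viability assay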
Description: SANGER: Inhibition of human DEL cell growth in a cell viability assay.

DJM-1 = system: DJM-1;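 note: growth inhibition of human DJM-1 cells, read out by a cell viability assay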
Description: SANGER: Inhibition of human DJM-1 cell growth in a cell viability assay.

DMS-114 = system: DMS-114
DSH1 = system: DSH1;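 note: growth inhibition of human DSH1 cells, measured with a cell viability readout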
Description: SANGER: Inhibition of human DSH1 cell growth in a cell viability assay.

EKVX = system: EKVX;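 note: growth inhibition of human EKVX cells, read out with a cell viability assay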
Description: SANGER: Inhibition of human EKVX cell growth in a cell viability assay.

ES3 = system: ES3;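 note: growth inhibition of ES3 cells, read out with a cell viability assay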
Description: SANGER: Inhibition of human ES3 cell growth in a cell viability assay.

ES4 = system: ES4;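 note: growth inhibition of human ES4 cells, read out by a cell viability assay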
Description: SANGER: Inhibition of human ES4 cell growth in a cell viability assay.

EW-11 = system: EW-11;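 note: growth inhibition of human EW-11 cells, measured with a cell viability assay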
Description: SANGER: Inhibition of human EW-11 cell growth in a cell viability assay.

EW-13 = system: EW-13;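 note: growth inhibition of EW-13 cells, read out with a cell viability assay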
Description: SANGER: Inhibition of human EW-13 cell growth in a cell viability assay.

GT3TKB = system: GT3TKB;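 note: growth inhibition of the cell line, read out with a cell viability assay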
Description: SANGER: Inhibition of human GT3TKB cell growth in a cell viability assay.

HAL-01 = system: HAL-01;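 note: growth inhibition of human HAL-01 cells, read out with a cell viability assay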
Description: SANGER: Inhibition of human HAL-01 cell growth in a cell viability assay.

HCC1187 = system: HCC1187;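 note: growth inhibition of HCC1187 cells, read out with a cell viability assay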
Description: SANGER: Inhibition of human HCC1187 cell growth in a cell viability assay.

HD-MY-Z = system: HD-MY-Z;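 note: growth inhibition of HD-MY-Z cells, read out with a cell viability assay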
Description: SANGER: Inhibition of human HD-MY-Z cell growth in a cell viability assay.

HEL = system: HEL;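 note: growth inhibition of HEL cells, read out with a cell viability assay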
Description: SANGER: Inhibition of human HEL cell growth in a cell viability assay.

HH = system: HH
Description: SANGER: Inhibition of human HH cell growth in a cell viability assay.

HT = system: HT
Description: SANGER: Inhibition of human HT cell growth in a cell viability assay.

JVM-3 = system: JVM-3;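 note: growth inhibition of human JVM-3 cells, read out with a cell viability assay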
Description: SANGER: Inhibition of human JVM-3 cell growth in a cell viability assay.

K562 = system: K562
Description: SANGER: Inhibition of human K-562 cell growth in a cell viability assay.

KALS-1 = system: KALS-1;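 note: growth inhibition of KALS-1 cells, determined with a cell viability assay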
Description: SANGER: Inhibition of human KALS-1 cell growth in a cell viability assay.

KARPAS-45 = system: KARPAS-45;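 note: inhibition of cell line growth, read out through a viability assay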
Description: SANGER: Inhibition of human KARPAS-45 cell growth in a cell viability assay.

KINGS-1 = system: KINGS-1;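 note: cell viability assay measuring suppression of KINGS-1 cell growth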
Description: SANGER: Inhibition of human KINGS-1 cell growth in a cell viability assay.

KP-N-YS = system: KP-N-YS;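 note: cell viability assay measuring inhibition of cell line growth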
Description: SANGER: Inhibition of human KP-N-YS cell growth in a cell viability assay.

L-363 = system: L-363
Description: SANGER: Inhibition of human L-363 cell growth in a cell viability assay.

L-428 = system: L-428
Description: SANGER: Inhibition of human L-428 cell growth in a cell viability assay.

LAMA-84 = system: LAMA-84;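 note: growth inhibition of LAMA-84 cells, read out with a cell viability assay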
Description: SANGER: Inhibition of human LAMA-84 cell growth in a cell viability assay.

LB2518-MEL = system: LB2518-MEL;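 note: growth inhibition of human LB2518-MEL cells, measured with a cell viability assay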
Description: SANGER: Inhibition of human LB2518-MEL cell growth in a cell viability assay.

LNCaP-Clone-FGC = system: LNCaP-Clone-FGC
Description: SANGER: Inhibition of human LNCaP-Clone-FGC cell growth in a cell viability assay.

MFM-223 = system: MFM-223
Description: SANGER: Inhibition of human MFM-223 cell growth in a cell viability assay.

MLMA = system: MLMA;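 note: growth inhibition of MLMA cells (human), determined through a cell viability readout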
Description: SANGER: Inhibition of human MLMA cell growth in a cell viability assay.

MOLT-4 = system: MOLT-4;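 note: growth inhibition of MOLT-4 cells, determined with a cell viability readout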
Description: SANGER: Inhibition of human MOLT-4 cell growth in a cell viability assay.

MZ2-MEL = system: MZ2-MEL;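 note: growth inhibition of MZ2-MEL cells read out with a cell viability assay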
Description: SANGER: Inhibition of human MZ2-MEL cell growth in a cell viability assay.

NB10 = system: NB10;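 note: growth inhibition of NB10 cells, read out by a cell viability assay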
Description: SANGER: Inhibition of human NB10 cell growth in a cell viability assay.

NCI-H1092 = system: NCI-H1092;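 note: cell growth inhibition measured with a cell viability assay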
Description: SANGER: Inhibition of human NCI-H1092 cell growth in a cell viability assay.

NCI-H1299 = system: NCI-H1299;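 note: growth inhibition of human NCI-H1299 cells, read out by a cell viability assay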
Description: SANGER: Inhibition of human NCI-H1299 cell growth in a cell viability assay.

NCI-H1304 = system: NCI-H1304;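 note: growth inhibition of the cancer cell line, measured in a cell viability assay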
Description: SANGER: Inhibition of human NCI-H1304 cell growth in a cell viability assay.

NCI-H446 = system: NCI-H446;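 note: growth inhibition of NCI-H446 cells determined by a cell viability assay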
Description: SANGER: Inhibition of human NCI-H446 cell growth in a cell viability assay.

NCI-H510A = system: NCI-H510A;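 note: growth inhibition of NCI-H510A cells, read out with a cell viability assay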
Description: SANGER: Inhibition of human NCI-H510A cell growth in a cell viability assay.

NCI-H747 = system: NCI-H747;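 note: growth inhibition of human NCI-H747 cells, read out by a cell viability assay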
Description: SANGER: Inhibition of human NCI-H747 cell growth in a cell viability assay.

NCI-H82 = system: NCI-H82;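 note: growth inhibition of NCI-H82 cells, measured with a cell viability readout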
Description: SANGER: Inhibition of human NCI-H82 cell growth in a cell viability assay.

NOS-1 = system: NOS-1;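 note: growth inhibition of the human NOS-1 cell line, read out with a cell viability assay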
Description: SANGER: Inhibition of human NOS-1 cell growth in a cell viability assay.

OCI-AML2 = system: OCI-AML2;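 note: growth inhibition of OCI-AML2 cells, read out with a cell viability assay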
Description: SANGER: Inhibition of human OCI-AML2 cell growth in a cell viability assay.

ONS-76 = system: ONS-76;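 note: growth inhibition of human ONS-76 cells, read out with a cell viability assay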
Description: SANGER: Inhibition of human ONS-76 cell growth in a cell viability assay.

OVCAR-4 = system: OVCAR-4;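 note: growth inhibition of human OVCAR-4 cells, measured with a cell viability assay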
Description: SANGER: Inhibition of human OVCAR-4 cell growth in a cell viability assay.

RCC10RGB = system: RCC10RGB;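 note: growth inhibition of human RCC10RGB cells, read out by a cell viability assay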
Description: SANGER: Inhibition of human RCC10RGB cell growth in a cell viability assay.

RKO = system: RKO;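 note: growth inhibition of human RKO cells, read out with a cell viability assay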
Description: SANGER: Inhibition of human RKO cell growth in a cell viability assay.

SK-MEL-1 = system: SK-MEL-1;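 note: growth inhibition of human SK-MEL-1 cells, read out by a cell viability assay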
Description: SANGER: Inhibition of human SK-MEL-1 cell growth in a cell viability assay.

SK-N-DZ = system: SK-N-DZ;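 note: growth inhibition of the cancer cell line, read out through a viability assay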
Description: SANGER: Inhibition of human SK-N-DZ cell growth in a cell viability assay.

SK-NEP-1 = system: SK-NEP-1;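 note: growth inhibition of human SK-NEP-1 cells, read out by a cell viability assay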
Description: SANGER: Inhibition of human SK-NEP-1 cell growth in a cell viability assay.

SK-UT-1 = system: SK-UT-1;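 note: growth inhibition of SK-UT-1 cells, measured by a cell viability assay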
Description: SANGER: Inhibition of human SK-UT-1 cell growth in a cell viability assay.

SW982 = system: SW982;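 note: growth inhibition of SW982 cells, read out with a cell viability assay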
Description: SANGER: Inhibition of human SW982 cell growth in a cell viability assay.

A101D = system: A101D;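 note: growth inhibition of the cell line, measured with a viability assay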
Description: SANGER: Inhibition of human A101D cell growth in a cell viability assay.

A388 = system: A388;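 note: growth inhibition of human A388 cells, read out with a cell viability assay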
Description: SANGER: Inhibition of human A388 cell growth in a cell viability assay.

BB49-HNC = system: BB49-HNC;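 note: cell viability assay read-out, reported as inhibition of BB49-HNC cell growth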
Description: SANGER: Inhibition of human BB49-HNC cell growth in a cell viability assay.

TE-10 = system: TE-10;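 note: growth inhibition of TE-10 cells, measured by a cell viability assay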
Description: SANGER: Inhibition of human TE-10 cell growth in a cell viability assay.

TE-5 = system: TE-5;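 note: inhibition of cell growth, read out by a cell viability assay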
Description: SANGER: Inhibition of human TE-5 cell growth in a cell viability assay.

TE-6 = system: TE-6;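 note: growth inhibition of TE-6 cells, read out with a cell viability assay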
Description: SANGER: Inhibition of human TE-6 cell growth in a cell viability assay.

TE-9 = system: TE-9;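 note: cell growth inhibition, measured with a cell viability readout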
Description: SANGER: Inhibition of human TE-9 cell growth in a cell viability assay.

TGBC1TKB = system: TGBC1TKB
Description: SANGER: Inhibition of human TGBC1TKB cell growth in a cell viability assay.

U-266 = system: U-266
Description: SANGER: Inhibition of human U-266 cell growth in a cell viability assay.

UACC-257 = system: UACC-257
Description: SANGER: Inhibition of human UACC-257 cell growth in a cell viability assay.

no-10 = system: no-10
Description: SANGER: Inhibition of human no-10 cell growth in a cell viability assay.

CCRF-CEM = system: CCRF-CEM
Description: SANGER: Inhibition of human CCRF-CEM cell growth in a cell viability assay.

CGTH-W-1 = system: CGTH-W-1
Description: SANGER: Inhibition of human CGTH-W-1 cell growth in a cell viability assay.

COLO-320-HSR = system: COLO-320-HSR
Description: SANGER: Inhibition of human COLO-320-HSR cell growth in a cell viability assay.

Compound `Cn1cc(/C=C2\C(=O)Nc3cccnc32)c2ccccc21` has an IC50 (COLO-800) greater than 2 µM, an IC50 (COLO-824) greater than 2 µM and an IC50 (DEL) greater than 2 µM. For the same compound, the IC50 (DJM-1) was greater than 2 µM, the IC50 (DMS-114) was greater than 2 µM and the IC50 (DSH1) was greater than 2 µM. It also gave an IC50 (EKVX) greater than 2 µM, an IC50 (ES3) greater than 2 µM and an IC50 (ES4) greater than 2 µM. The IC50 (EW-11) was greater than 2 µM, the IC50 (EW-13) was greater than 2 µM and the IC50 (GT3TKB) was greater than 2 µM. The IC50 (HAL-01) was greater than 2 µM, the IC50 (HCC1187) was greater than 2000 nM and the IC50 (HD-MY-Z) was greater than 2 µM. For the same compound, the IC50 (HEL) was greater than 2 µM, the IC50 (HH) was greater than 2 µM and the IC50 (HT) was greater than 2 µM. For the same compound, the IC50 (JVM-3) was greater than 2 µM, the IC50 (K562) was greater than 2 µM and the IC50 (KALS-1) was greater than 2 µM. For the same compound, the IC50 (KARPAS-45) was greater than 2 µM, the IC50 (KINGS-1) was greater than 2 µM and the IC50 (KP-N-YS) was greater than 2 µM. The IC50 (L-363) was greater than 2 µM, the IC50 (L-428) was greater than 2 µM and the IC50 (LAMA-84) was greater than 2 µM. It also gave an IC50 (LB2518-MEL) greater than 2 µM, an IC50 (LNCaP-Clone-FGC) greater than 2 µM and an IC50 (MFM-223) greater than 2 µM. For the same compound, the IC50 (MLMA) was greater than 2 µM, the IC50 (MOLT-4) was greater than 2 µM and the IC50 (MZ2-MEL) was greater than 2 µM. It also gave an IC50 (NB10) greater than 2 µM, an IC50 (NCI-H1092) greater than 2 µM and an IC50 (NCI-H1299) greater than 2 µM. For the same compound, the IC50 (NCI-H1304) was greater than 2 µM, the IC50 (NCI-H446) was greater than 2 µM and the IC50 (NCI-H510A) was greater than 2 µM. The IC50 (NCI-H747) was greater than 2 µM, the IC50 (NCI-H82) was greater than 2 µM and the IC50 (NOS-1) was greater than 2 µM. For the same compound, the IC50 (OCI-AML2) was greater than 2 µM, the IC50 (ONS-76) was greater than 2 µM and the IC50 (OVCAR-4) was greater than 2 µM. The IC50 (RCC10RGB) was greater than 2 µM, the IC50 (RKO) was greater than 2000 nM and the IC50 (SK-MEL-1) was greater than 2 µM. It also gave an IC50 (SK-N-DZ) greater than 2 µM, an IC50 (SK-NEP-1) greater than 2 µM and an IC50 (SK-UT-1) greater than 2 µM. It also gave an IC50 (SW982) greater than 2000 nM, an IC50 (A101D) greater than 2000 nM and an IC50 (A388) greater than 2 µM. It also gave an IC50 (BB49-HNC) greater than 2000 nM, an IC50 (TE-10) greater than 2000 nM and an IC50 (TE-5) greater than 2 µM. The IC50 (TE-6) was greater than 2 µM, the IC50 (TE-9) was greater than 2 µM and the IC50 (TGBC1TKB) was greater than 2 µM. For the same compound, the IC50 (U-266) was greater than 2 µM, the IC50 (UACC-257) was 1530 nM and the IC50 (no-10) was greater than 2 µM. It also gave an IC50 (CCRF-CEM) greater than 2 µM, an IC50 (CGTH-W-1) greater than 2 µM and an IC50 (COLO-320-HSR) greater than 2 µM.
In the case of `N#C/C(=C1/Nc2ccccc2S1)c1ccnc(NCCc2cccnc2)n1`, the IC50 (COLO-800) is reported as greater than 8 µM, the IC50 (COLO-824) is reported as greater than 8 µM and the IC50 (DEL) is reported as 6.24 µM. For the same compound, the IC50 (DJM-1) was greater than 8 µM, the IC50 (DMS-114) was greater than 8 µM and the IC50 (DSH1) was greater than 8 µM. For the same compound, the IC50 (EKVX) was greater than 8 µM, the IC50 (ES3) was greater than 8 µM and the IC50 (ES4) was greater than 8 µM. For the same compound, the IC50 (EW-11) was greater than 8 µM, the IC50 (EW-13) was greater than 8 µM and the IC50 (GT3TKB) was greater than 8 µM. It also gave an IC50 (HAL-01) greater than 8 µM, an IC50 (HCC1187) of 1810 nM and an IC50 (HD-MY-Z) greater than 8 µM. For the same compound, the IC50 (HEL) was 7.08 µM, the IC50 (HH) was greater than 8 µM and the IC50 (HT) was greater than 8 µM. It also gave an IC50 (JVM-3) greater than 8 µM, an IC50 (K562) greater than 8 µM and an IC50 (KALS-1) greater than 8 µM. For the same compound, the IC50 (KARPAS-45) was 6.3 µM, the IC50 (KINGS-1) was greater than 8 µM and the IC50 (KP-N-YS) was greater than 8 µM. It also gave an IC50 (L-363) greater than 8 µM, an IC50 (L-428) greater than 8 µM and an IC50 (LAMA-84) greater than 8 µM. The IC50 (LB2518-MEL) was greater than 8 µM, the IC50 (LNCaP-Clone-FGC) was greater than 8 µM and the IC50 (MFM-223) was greater than 8 µM. It also gave an IC50 (MLMA) greater than 8 µM, an IC50 (MOLT-4) greater than 8 µM and an IC50 (MZ2-MEL) greater than 8 µM. It also gave an IC50 (NB10) greater than 8 µM, an IC50 (NCI-H1092) greater than 8 µM and an IC50 (NCI-H1299) of 4.78 µM. The IC50 (NCI-H1304) was greater than 8 µM, the IC50 (NCI-H446) was greater than 8 µM and the IC50 (NCI-H510A) was greater than 8 µM. For the same compound, the IC50 (NCI-H747) was 6.03 µM, the IC50 (NCI-H82) was greater than 8 µM and the IC50 (NOS-1) was 5.95 µM. It also gave an IC50 (OCI-AML2) of 4.65 µM, an IC50 (ONS-76) greater than 8 µM and an IC50 (OVCAR-4) of 5.7 µM. The IC50 (RCC10RGB) was greater than 8 µM, the IC50 (RKO) was 2310 nM and the IC50 (SK-MEL-1) was greater than 8 µM. For the same compound, the IC50 (SK-N-DZ) was greater than 8 µM, the IC50 (SK-NEP-1) was greater than 8 µM and the IC50 (SK-UT-1) was 7.5 µM. For the same compound, the IC50 (SW982) was 1780 nM, the IC50 (A101D) was 2220 nM and the IC50 (A388) was greater than 8 µM. For the same compound, the IC50 (BB49-HNC) was 1390 nM, the IC50 (TE-10) was 2230 nM and the IC50 (TE-5) was greater than 8 µM. For the same compound, the IC50 (TE-6) was greater than 8 µM, the IC50 (TE-9) was 6.49 µM and the IC50 (TGBC1TKB) was greater than 8 µM. It also gave an IC50 (U-266) greater than 8 µM, an IC50 (UACC-257) greater than 8000 nM and an IC50 (no-10) greater than 8 µM. For the same compound, the IC50 (CCRF-CEM) was greater than 8 µM, the IC50 (CGTH-W-1) was 5.54 µM and the IC50 (COLO-320-HSR) was greater than 8 µM.
